Columns and labels:
[1] = target: T1, Candida antarctica lipase (Moesziomyces antarcticus, UniProt P41365); assay: Candida antarctica lipase activity based on temperature (release of para-nitrophenol, colorimetry at 414 nm); assay type: biochemical; settings: PIPES buffer 0.1 M pH 7, 40 minutes
Protocol: (§1) The hydrolytic activity of the Candida antarctica lipase was tested on 2 substrates: 2-hydroxy-4-p-nitrophenyl-butyl-decanoate and p-nitro-phenylbutyrate. The lipase activity is detected after hydrolysis of ester functions of substrates that produce the release (direct or indirect) of yellow-colored para-nitrophenol that is measured by colorimetry at 414 nm. The tests were carried out at different temperatures and pH.
(§2) The stock solutions of 2-hydroxy-4-p-nitrophenyl-butyl-decanoate and para-nitrophenolbutyrate (SIGMA) are prepared at the concentration of 20 mmol respectively in acetonitrile and isopropanol. The concentration of lipase B that is used is 0.01 mg/ml in a phosphate buffer (100 mmol, pH 7).
(§3) 74 μl of PIPES buffer (100 mmol, pH 7) and 10 μl of a lipase solution at 0.01 mg/ml are added to 13.6 μmol of 2-hydroxy-4-p-nitrophenyl-butyl-decanoate. The reaction is incubated in a water bath for 40 minutes at 50, 60, 70, 80 and 95° C. The samples are then removed from the water bath. Then, 40 μl of NaIO4 (100 mmol) and 4 μl of BSA (50 mg/ml) are added to the mixture. The pH of the solution is then adjusted to 10 by adding 40 μl of an Na2CO3 solution at 0.2 M. The para-nitrophenol that is released is then measured with a colorimeter at 414 nm.
(§4) 74 μl of PIPES buffer (100 mmol, pH 7) and 10 μl of a lipase solution at 0.01 mg/ml are added to 13.6 μmol of para-nitrophenylbutyrate. The reaction is incubated in a water bath for 40 minutes at 50, 60, 70, 80 and 95° C. The samples are then removed from the water bath, and the pH of the solution is adjusted to 10 with a 0.2 M Na2CO3 solution. The released para-nitrophenol is then measured with a calorimeter at 414 nm.
(§5) The activity of the lipase based on the incubation temperature was measured by using 2-hydroxy-4-p-nitrophenyl-butyl-decanoate and the para-nitrophenylbutyrate commercial substrate. […] The activities are expressed in %. The enzymatic reactions were carried out in the PIPES buffer (0.1 M, pH 7) at 50, 60, 70, 80 and 95° C. for 40 minutes. A negative control without enzyme was also carried out by using the same experimental conditions.

[2] = negative control without enzyme, temperature series (para-nitrophenol released from the substrate); assay type: physicochemical; settings: PIPES buffer 0.1 M pH 7, 40 minutes, no enzyme
Protocol: as §3
A negative control without enzyme was carried out under the same experimental conditions.
as §4, §5

[3] = target: T1, Candida antarctica lipase; assay: Candida antarctica lipase activity based on the pH of the solution (release of para-nitrophenol, 414 nm); assay type: biochemical; settings: 40 minutes
Protocol: as §1, §2
The enzymatic activity of the Candida antarctica lipase was carried out at different pH levels by using buffers (100 mmol) listed in Table VII below.
74 μl of buffer at the desired pH (100 mmol) and 10 μl of a lipase solution at 0.01 mg/ml are added to 13.6 μmol of 2-hydroxy-4-p-nitrophenyl-butyl-decanoate. The reaction is incubated in a water bath for 40 minutes at 60° C. The samples are then removed from the water bath. Then, 40 μl of NaIO4 (100 mmol) and 4 μl of BSA (50 mg/ml) are added to the mixture. The pH of the solution is then adjusted to 10 by adding 40 μl of a solution of Na2CO3 at 0.2 M. The para-nitrophenol that is released is then measured with a calorimeter at 414 nm.
(§6) 74 μl of buffer at the desired pH (100 mmol) and 10 μl of a lipase solution at 0.01 mg/ml are added to 13.6 μmol of para-nitrophenylbutyrate. The reaction is incubated in a water bath for 40 minutes at 60° C. The samples are then removed from the water bath, and the pH of the solution is adjusted to 10 with a 0.2 M Na2CO3 solution. The para-nitrophenol that is released is then measured with a colorimeter at 414 nm.
(§7) The hydrolytic activity of the lipase based on the pH of the solution was also measured. […] The activities are expressed in %. The enzymatic reactions were incubated at 60° C. for 40 minutes at pH 3, 4, 5, 6.5, 7 and 8. A negative control without enzyme was also carried out by using the same experimental conditions.

[4] = negative control without enzyme, pH series (para-nitrophenol released from the substrate); assay type: physicochemical; settings: 40 minutes, no enzyme
Protocol: as §6, §7

[5] = stability of the substrates / oxidation by periodate in the presence of BSA; assay type: physicochemical; settings: aqueous media
Excerpt: The oxidation of 1,2 diols and amino alcohols by periodate in an aqueous medium is a reaction that is well known to one skilled in the art. This reaction provides a purely chemical alternative for the conversion of alcohols into carbonyl groups in aqueous medium with a high chemoselectivity in the presence of other functional groups.
The substrates acetates 1, amide 5 and epoxide 6 are stable in the presence of periodate and BSA […] the aqueous media. […] Under optimized reaction conditions using 100 μm of substrate, 1 mmol of sodium periodate, 2 mg/ml of BSA in a borate buffer with a pH of 8.8, diol 2 is transformed into umbelliferone with a yield of 72% without observable secondary reactions. […] The oxidation of amino alcohol 6 takes place with a yield of 85% under the same conditions.

T1 sequence (P41365 26-342): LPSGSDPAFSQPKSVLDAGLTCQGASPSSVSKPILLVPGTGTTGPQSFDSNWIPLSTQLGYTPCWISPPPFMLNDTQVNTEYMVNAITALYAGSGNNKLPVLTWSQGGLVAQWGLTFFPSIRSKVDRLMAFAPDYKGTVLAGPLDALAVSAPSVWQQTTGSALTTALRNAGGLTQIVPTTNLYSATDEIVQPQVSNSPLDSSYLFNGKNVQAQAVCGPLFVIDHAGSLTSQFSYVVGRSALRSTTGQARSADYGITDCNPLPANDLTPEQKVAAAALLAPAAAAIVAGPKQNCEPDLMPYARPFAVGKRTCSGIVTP

SMILES	stability in the presence of periodate and BSA [5]	activity of the Candida antarctica lipase (Lipase B) ([1]; 50° C.) [%]	activity of the Candida antarctica lipase (Lipase B) ([1]; 60° C.) [%]	activity of the Candida antarctica lipase (Lipase B) ([1]; 70° C.) [%]	activity of the Candida antarctica lipase (Lipase B) ([1]; 80° C.) [%]	activity of the Candida antarctica lipase (Lipase B) ([1]; 95° C.) [%]	activity signal Without enzyme ([2]; 50° C.) [%]	activity signal Without enzyme ([2]; 60° C.) [%]	activity signal Without enzyme ([2]; 70° C.) [%]	activity signal Without enzyme ([2]; 80° C.) [%]	activity signal Without enzyme ([2]; 95° C.) [%]	activity of the Candida antarctica lipase (Lipase B) ([3]; pH 3, 60° C.) [%]	activity of the Candida antarctica lipase (Lipase B) ([3]; pH 4, 60° C.) [%]	activity of the Candida antarctica lipase (Lipase B) ([3]; pH 5, 60° C.) [%]	activity of the Candida antarctica lipase (Lipase B) ([3]; pH 6.5, 60° C.) [%]	activity of the Candida antarctica lipase (Lipase B) ([3]; pH 7, 60° C.) [%]	activity of the Candida antarctica lipase (Lipase B) ([3]; pH 8, 60° C.) [%]	activity signal Without enzyme ([4]; pH 3, 60° C.) [%]	activity signal Without enzyme ([4]; pH 4, 60° C.) [%]	activity signal Without enzyme ([4]; pH 5, 60° C.) [%]	further results
CCCC(=O)Oc1ccc([N+](=O)[O-])cc1 [p-Nitrophenylbutyrate, p-nitro-phenylbutyrate, reference compound]	–	100	75.4	60.4	55.9	66.7	83.6	67.3	59.5	59.8	71.5	94.2	73	100	79.5	60.8	103.9	54.9	63.6	65.6	activity signal Without enzyme ([4]; pH 6.5, 60° C.): 69.2%; activity signal Without enzyme ([4]; pH 7, 60° C.): 51.4%; activity signal Without enzyme ([4]; pH 8, 60° C.): 103.9%
CCCCCCCCCC(=O)OCC(O)CCc1ccc([N+](=O)[O-])cc1 (stereo not drawn) [2-hydroxy-4-p-nitrophenyl-butyl-decanoate]	–	100	75.9	61.5	44.2	26.1	8.7	9.4	9.5	8.1	8.6	58.9	80.9	96.1	100	72	40	3.9	2.7	2.6	activity signal Without enzyme ([4]; pH 6.5, 60° C.): 2.9%; activity signal Without enzyme ([4]; pH 7, 60° C.): 3.4%; activity signal Without enzyme ([4]; pH 8, 60° C.): 2.8%
O=C(Cc1ccccc1)NCC(O)CCOc1ccc2ccc(=O)oc2c1 (stereo not drawn) [amide 5, 1-Phenylacetamido-4-(7-coumarinyloxy)-2-butanol]	stable	–	–	–	–	–	–	–	–	–	–	–	–	–	–	–	–	–	–	–	–
NCC(O)CCOc1ccc2ccc(=O)oc2c1 (stereo not drawn) [amino alcohol 6, 1-Amino-4-(7-coumarinyloxy)-2-butanol]	release umbelliferone	–	–	–	–	–	–	–	–	–	–	–	–	–	–	–	–	–	–	–	–

Further lines, with some results ahead:

stability in the presence of periodate and BSA [5]	SMILES	activity of the Candida antarctica lipase (Lipase B) ([1]; 50° C.) [%]	activity of the Candida antarctica lipase (Lipase B) ([1]; 60° C.) [%]	activity of the Candida antarctica lipase (Lipase B) ([1]; 70° C.) [%]	activity of the Candida antarctica lipase (Lipase B) ([1]; 80° C.) [%]	activity of the Candida antarctica lipase (Lipase B) ([1]; 95° C.) [%]	activity signal Without enzyme ([2]; 50° C.) [%]	activity signal Without enzyme ([2]; 60° C.) [%]	activity signal Without enzyme ([2]; 70° C.) [%]	activity signal Without enzyme ([2]; 80° C.) [%]	activity signal Without enzyme ([2]; 95° C.) [%]	activity of the Candida antarctica lipase (Lipase B) ([3]; pH 3, 60° C.) [%]	activity of the Candida antarctica lipase (Lipase B) ([3]; pH 4, 60° C.) [%]	activity of the Candida antarctica lipase (Lipase B) ([3]; pH 5, 60° C.) [%]	activity of the Candida antarctica lipase (Lipase B) ([3]; pH 6.5, 60° C.) [%]	activity of the Candida antarctica lipase (Lipase B) ([3]; pH 7, 60° C.) [%]	activity of the Candida antarctica lipase (Lipase B) ([3]; pH 8, 60° C.) [%]	activity signal Without enzyme ([4]; pH 3, 60° C.) [%]	activity signal Without enzyme ([4]; pH 4, 60° C.) [%]	activity signal Without enzyme ([4]; pH 5, 60° C.) [%]	further results
release umbelliferone	O=c1ccc2ccc(OCC[C@H](O)CO)cc2o1 [diol 2, (S)-4-(7-coumarinyloxy)-1,2-butanediol]	–	–	–	–	–	–	–	–	–	–	–	–	–	–	–	–	–	–	–	–
stable	O=c1ccc2ccc(OCC[C@H]3CO3)cc2o1 [epoxide 6, (S)-4-(7-coumarinyloxy)-1,2-epoxybutane]	–	–	–	–	–	–	–	–	–	–	–	–	–	–	–	–	–	–	–	–
